{"source": "paper PMC9452909", "about": "“Monomethylsulochrin isolated from biomass extract of Aspergillus sp. against Leishmania amazonensis: In vitro biological evaluation and molecular docking” (Frontiers in Cellular and Infection Microbiology, 2022)", "key": {"[1]": {"test_system": "L. mexicana promastigote forms", "parameters": "method as in Hay et al. (2008)", "settings": "ref Hay et al. (2008); cited from earlier work"}, "[2]": {"test_system": "L. infantum promastigote forms", "parameters": "method as in Hay et al. (2008)", "settings": "ref Hay et al. (2008); cited from earlier work"}, "[3]": {"test_system": "L. infantum intracellular amastigote forms", "parameters": "method as in Hay et al. (2008)", "settings": "ref Hay et al. (2008); cited from earlier work"}, "[4]": {"assay": "Cytotoxicity assay (MTT)", "type": "cell-based", "settings": "mouse", "procedure": "The animals were stimulated by intraperitoneal inoculation of 3.0 ml of sodium thioglycolate at 3.0%. After 72 h of elicitation, the animals were euthanized with 10% ketamine (Syntec, São Paulo, BRA) and 2% xylazine (Syntec, São Paulo, BRA) according to the weight of each animal and, after death, the animal’s skin was retracted by incision and subsequent divulsion for peritoneum exposure. A total of 10.0 ml of sterile pH 7.2 phosphate-buffered saline (PBS) was inoculated, and a light manual massage was performed. The cells were then harvested from the peritoneum and dispensed in a sterile conical tube. The peritoneal lavage was centrifuged at 380g for 5 min, and cells were suspended in culture medium (RPMI 1640 medium supplemented with 10% FBS, penicillin [100 U/ml], and [100 μg/ml] streptomycin) and incubated at 37°C, 5% CO2 overnight ([Almeida-Souza et al., 2018]).\nWells without cells were used as blank, and wells with cells and 1% DMSO were used as control. After 24-h incubation period, cell viability was assessed by MTT. The cytotoxicity of 50% (CC50) was calculated following the method described elsewhere by [Oliveira et al. (2018)]. The selectivity index (SI) was obtained from the ratio of peritoneal macrophages CC50 and IC50."}, "[5]": {"test_system": "L. amazonensis intracellular amastigote", "assay": "Activity against intracellular amastigote in infected peritoneal macrophages", "type": "cell-based, Leishmania amazonensis", "settings": "24 h; for IC50: Leishmania amazonensis, Peritoneal macrophage, in Mus musculus, read-out: L. amazonensis Intracellular amastigote IC50", "procedure": "The viability of parasites was evaluated after treatment by counting the total number of live promastigotes, considering the flagellar motility, using Neubauer’s camera and optical light microscope ([Rottini et al., 2019]). This count was compared with the score of non-treated promastigote growth. This experiment was carried out in independent triplicate with each condition performed in triplicate. […] Wells with medium and without parasites were used as blanks, and wells with parasites only incubated with medium were used as controls. […] After 6 h, the cells were washed three times with PBS to remove free parasites. […] For the light microscopy analysis, the coverslips with the infected and treated cells were then fixed with Bouin solution and stained with Giemsa. […] Parameters of infection analysis were performed according to [Silva-Silva et al. (2021a)]."}, "[6]": {"test_system": "L. amazonensis promastigote", "assay": "Antileishmanial activity assay, promastigote forms (live parasite counting)", "type": "cell-based, Leishmania amazonensis", "settings": "24 h; for IC50: Leishmania amazonensis, mean ± SD", "procedure": "Promastigote forms of L. amazonensis H21 (MHOM/BR/76/MA-76) were cultured at 26°C in Schneider’s insect medium. The culture was supplemented with 10% FBS, 100 IU/ml of penicillin, and 100 µg/ml of streptomycin in a maximum of 10 in vitro passages ([Almeida-Souza et al., 2016]).\nIn 96-well plates, the promastigote forms of L. amazonensis (10^6 parasites/ml) from a 3- to 5-day-old culture were incubated for 24 h in the presence of different concentrations of pseurotin A at 7.24–579.5 μM and monomethylsulochrin at 9.0–721.9 μM, in a final volume of 100 µL per well. The viability of parasites was evaluated after treatment by counting the total number of live promastigotes, considering the flagellar motility, using Neubauer’s camera and optical light microscope ([Rottini et al., 2019]). This count was compared with the score of non-treated promastigote growth. This experiment was carried out in independent triplicate with each condition performed in triplicate. The results were expressed as parasite growth inhibitory concentration of 50% (IC50). Wells with medium and without parasites were used as blanks, and wells with parasites only incubated with medium were used as controls. […] Activity against intracellular amastigote was performed in 24-well plates, with coverslips, with peritoneal macrophages cultured (5 × 10^5 cells per well) and infected with promastigote forms of L. amazonensis using a ratio of 10:1 parasites per cell. After 6 h, the cells were washed three times with PBS to remove free parasites. […] For the light microscopy analysis, the coverslips with the infected and treated cells were then fixed with Bouin solution and stained with Giemsa. The IC50 values of all compounds tested were calculated from the total of intracellular amastigote from 100 cells. Parameters of infection analysis were performed according to [Silva-Silva et al. (2021a)]."}, "[7]": {"test_system": "fungi", "parameters": "method as in Zhang et al., 2014", "settings": "ref Zhang et al., 2014; cited from earlier work"}, "[8]": {"test_system": "bacteria", "parameters": "method as in Zhang et al., 2014", "settings": "ref Zhang et al., 2014; cited from earlier work"}, "[9]": {"test_system": "L. amazonensis promastigote forms", "assay": "Transmission electron microscopy, ultrastructural alterations", "type": "cell-based, Leishmania amazonensis", "settings": "18.04 µM (IC50), 24 h; p = 0.0016, 0.0016, 0.0480, 0.0079", "procedure": "The transmission electron microscopy was performed to evaluate if monomethylsulochrin induced any ultrastructural alterations to the L. amazonensis promastigote forms. Parasites were treated with monomethylsulochrin with IC50 for 24 h and fixed with 2.5% glutaraldehyde in sodium cacodylate buff;er (0.1 M, pH 7.2) for overnight, then washed three times with 0.1 M sodium cacodylate buffer and postfixed in a solution containing 1% osmium tetroxide, 0.8% ferrocyanide, and 5 mM calcium chloride. 0.1 M sodium cacodylate buffer was used for washing, before being dehydrated in graded acetone and embedded in EPON 812 resin. Ultrathin sections were stained with 5% uranyl acetate aqueous solution and lead citrate (1.33% lead nitrate and 1.76% sodium citrate) and examined in a JEM-1011 transmission electron microscope (JEOL, Tokyo, Japan) at 80 kV ([Silva-Silva et al., 2021b]). The images acquired were used for quantification of the number of vacuoles and lipid corpuscles and area of vacuoles, lipid corpuscles, and mitochondria, using ImageJ software (NIH). Quantitative analysis was conducted with five untreated parasites and at least 10 treated parasites. The number of vacuoles and lipid corpuscles was expressed as mean ± standard deviation (SD), and the area of vacuoles, lipid corpuscles, and mitochondria were expressed as percentage of each parasite total area."}, "[10]": {"test_system": "L. amazonensis promastigote forms", "assay": "Flow cytometry with TMRE, mitochondrial membrane potential", "type": "cell-based, Leishmania amazonensis", "settings": "24 h, p = 0.0286", "procedure": "Heat-killed parasites (60°C bath for 60 min) and untreated parasites were used as positive and negative controls, respectively. After incubation, parasites were centrifuged at 210g for 5 min at room temperature, washed in PBS, incubated with 300 μl of TMRE (50 nM) in the dark for 15 min, at room temperature, and submitted to flow cytometry through CytoFlex flow cytometer (Beckman Coulter Life Sciences, IN, USA). TMRE was excited by 488-nm blue laser, and its fluorescence was collected at 585/42 nm bandpass filter. CytExpert software version 2.1 (Beckman Coulter Life Sciences, IN, USA) was used for flow cytometry analyses ([Mondêgo-Oliveira et al., 2021])."}, "[11]": {"test_system": "L. donovani amastigotes, axenically cultured (cell free)", "parameters": "method as in Martińez-Luis et al. (2012)", "settings": "isolated from endophytic Aspergillus sp. strain F1544; ref Martińez-Luis et al. (2012); cited from earlier work"}, "[12]": {"test_system": "Leishmania", "parameters": "method as in Campos et al., 2017", "settings": "ref Campos et al., 2017, cited from earlier work"}, "[13]": {"settings": "peritoneal macrophages (thioglycolate-elicited), BALB/c peritoneal macrophages, 24 h, MTT, mean ± SD, read-out: Cytotoxicity CC50"}}, "note": "Like-named read-outs stand apart in the source and are kept apart here."}
{"compound": "CC(C)=CCC/C(C)=C/Cc1c(O)cc(O)c(C(=O)c2ccccc2)c1O", "note": "[3-geranyl-2,4,6-trihydroxybenzophenone]", "values": [{"measurement": "IC50 against promastigote forms of L. mexicana", "setting": "[1]", "result": 4.05, "unit": "µg/mL"}, {"measurement": "IC50 against promastigote forms of L. infantum", "setting": "[2]", "result": 15, "unit": "µg/mL"}, {"measurement": "IC50 against intracellular amastigote forms of L. infantum", "setting": "[3]", "result": 0.7, "unit": "µg/mL"}]}
{"compound": "C[C@@H]1[C@H](O)[C@@H](C)/C=C/C=C/C=C/C=C/C=C/C=C/C=C/[C@H](O[C@@H]2O[C@H](C)[C@@H](O)[C@H](N)[C@@H]2O)C[C@@H]2O[C@](O)(C[C@@H](O)C[C@@H](O)[C@H](O)CC[C@@H](O)C[C@@H](O)CC(=O)O[C@H]1C)C[C@H](O)[C@H]2C(=O)O", "note": "[Amphotericin B, amphotericin B, reference compound]", "values": [{"measurement": "CC50 at 24 h", "setting": "[4]; BALB/c", "result": "8.45 ± 1.08", "unit": "µM"}, {"measurement": "Infection parameters (all)", "setting": "[5]; 3 µM", "result": "significant reduction"}, {"measurement": "SIama (selectivity index = CC50 macrophages/IC50 amastigote forms)", "setting": "[5]", "result": 13.43}, {"measurement": "IC50", "setting": "[5]", "result": "0.629 ± 1.39", "unit": "µM"}, {"measurement": "SIpro (selectivity index = CC50 macrophages/IC50 promastigote forms)", "setting": "[6]", "result": 312.96}]}
{"compound": "COC(=O)c1cc(O)cc(OC)c1C(=O)c1c(O)cc(C)cc1OC", "note": "[Monomethylsulochrin, monomethylsulochrin]", "values": [{"measurement": "CC50 at 24 h", "setting": "[4]; [13]", "result": "91.6 ± 1.28", "unit": "µM"}, {"measurement": "Antifungal activity", "setting": "[7]", "result": "no antifungal activity"}, {"measurement": "Parameters of infection (amastigote number in 100 cells, percentage of infected cells, mean of amastigotes per infected cell)", "setting": "[5]; 6 µM, p = 0.0082, 0.0033, 0.0041", "result": "statistically significant reduction"}, {"measurement": "SIama (selectivity index = CC50 macrophages/IC50 amastigote forms)", "setting": "[5]", "result": 18.00}, {"measurement": "IC50", "setting": "[5]; infected BALB/c peritoneal macrophages, mean ± SD", "result": "5.09 ± 1.06", "unit": "µM"}, {"measurement": "Antibacterial activity", "setting": "[8]", "result": "weak antibacterial activity"}, {"measurement": "SIpro (selectivity index = CC50 macrophages/IC50 promastigote forms)", "setting": "[6]", "result": 5.08}, {"measurement": "IC50", "setting": "[6]", "result": "18 ± 1.11", "unit": "µM"}, {"measurement": "Ultrastructural changes: number of vacuoles, vacuoles area, lipid corpuscles area, mitochondria area", "setting": "[9]", "result": "statistically significant changes"}, {"measurement": "Change in Δψm", "setting": "[10]; 18.04 µM", "result": "significant decrease"}, {"measurement": "Decrease in the mitochondrial membrane potential", "setting": "[10]; IC50 concentration", "result": 25.9, "unit": "%"}]}
{"compound": "CC/C=C\\[C@H](O)[C@H](O)C1=C(C)C(=O)[C@]2(O1)C(=O)N[C@@](OC)(C(=O)c1ccccc1)[C@@H]2O", "note": "[Pseurotin A, pseurotin A]", "values": [{"measurement": "CC50 at 24 h", "setting": "[4]; [13]", "result": "654.4 ± 1.19", "unit": "µM"}, {"measurement": "IC50 against axenically cultured (cell free) L. donovani amastigotes", "setting": "[11]", "result": 5.8, "unit": "µg/mL"}, {"measurement": "IC50", "setting": "[6]", "result": "> 500", "unit": "µM"}]}
{"compound": "anhydrocochlioquinone A [anhydrocochlioquinone A (ANDC-A)]", "values": [{"measurement": "Leishmanicidal activity EC50", "setting": "[12]", "result": 22.4, "unit": "µg/mL"}, {"measurement": "EC50", "setting": "[12]; read-out: Leishmanicidal activity EC50", "result": 44, "unit": "µM"}]}
